Source: PubChem BioAssay (NCI)
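Compound exposure: 48 hours, 5 concentrations, 96-well plates. Here, GI50 denotes the concentration required for 50% inhibition of growth. TGI: total growth inhibition.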

Tests used:
Test in all cases: NCI-60 cell line screen, 48 h
A498 renal = system: A498 renal
ACHN renal = system: ACHN renal
BT-549 breast = system: BT-549 breast
CCRF-CEM leukemia = system: CCRF-CEM leukemia
K-562 leukemia = system: K-562 leukemia
NCI-H23 lung = system: NCI-H23 lung
NCI-H522 lung = system: NCI-H522 lung
SF-295 CNS = system: SF-295 CNS
SF-539 CNS = system: SF-539 CNS
SK-MEL-5 melanoma = system: SK-MEL-5 melanoma

Compound	TGI (A498 renal) [µM]	TGI (ACHN renal) [µM]	TGI (BT-549 breast) [µM]	TGI (CCRF-CEM leukemia) [µM]	TGI (K-562 leukemia) [µM]	TGI (NCI-H23 lung) [µM]	TGI (NCI-H522 lung) [µM]	TGI (SF-295 CNS) [µM]	TGI (SF-539 CNS) [µM]	TGI (SK-MEL-5 melanoma) [µM]	GI50 (A498 renal) [µM]	GI50 (ACHN renal) [µM]	GI50 (BT-549 breast) [µM]	GI50 (CCRF-CEM leukemia) [µM]	GI50 (K-562 leukemia) [µM]	GI50 (NCI-H23 lung) [µM]	GI50 (NCI-H522 lung) [µM]	GI50 (SF-295 CNS) [µM]	GI50 (SF-539 CNS) [µM]	GI50 (SK-MEL-5 melanoma) [µM]
CC1(C)CCC(C)(C)c2cc(NC(=O)c3ccc(C(=O)O)cc3)ccc21	85.1	> 100	68.1	> 31.6	> 100	53.9	> 89.3	68.2	> 51	> 93.2										
C=C1C(=O)O[C@H]2[C@H]1CC/C(CNC(=O)/C=C/c1ccccc1F)=C\CC[C@@]1(C)O[C@@H]21	7.49	2.53	3.45	2.92	7.45	4.42	1.64	20.9	2.94	3.29	2.6	1.12	1.48	0.416	0.577	1.88	0.399	7.16	1.26	1.78
C=CCOC(=O)Nc1cccn([C@H](CC(C)C)C(=O)NCCC(C)C)c1=O	> 100	> 100	> 100	90.3	> 100	> 100	> 100	> 100	> 100	> 100	17.2	> 100	> 100	26.8	96	57.2	63.8	18.7	> 100	74.7
CN(C)Cc1c(C(=O)NCCOc2ccc(C(=O)NO)cc2)oc2ccccc12	0.411	1.15	13.8	25.8	> 100	2.06	0.574	0.713	18	0.347	0.126	0.264	0.519	0.135	0.307	0.267	0.0819	0.225	0.385	0.159
COc1cc2c(c(OC)c1OC)-c1c(c3ccc([N+](=O)[O-])cc3c(=O)n1CCCN)C2=O	18	16.6	46.9	2.12	1.33	10.2	19.1	7.82	3.28	15.8	8.22	8.06	14.4	0.826	0.478	2.35	9.63	1.86	1.38	7.15
CCC1(c2ccc(N)cc2)CCC(=O)NC1=O (centres undefined)	> 5000	> 5000	> 5000	> 1990	> 5000	> 5000	4950	> 3870	> 5000	3670										
Cn1cc(C2=C(c3cn(CCCCCO)c4ccccc34)C(=O)NC2=O)c2ccccc21	14.3	24.8	10.9	> 16.6	> 25	16.5	10.6	13.9	8.55	6.82	4.18	6.82	4	3.01	2.16	5.34	2.27	4.5	3.16	3.29
CC(C)C(=O)c1c(C(F)(F)F)n([O-])c2ccccc2[n+]1=O	16.2		3.08	9.83	> 27.1	3.41	15.1	2	5.17	3.03	7.34	2.3	1.06	1.57	0.508	1.67	1.76	0.553	1.81	1.63
Cc1[nH]nc2ncc(C(=O)N3CCC[C@H]3c3ccc(Cl)cc3)cc12	> 100	> 100	> 100	> 100	> 100	> 100	> 100	> 100	> 100	> 100	32.5	36.3	50.6	36.1	37.1	> 100	> 100	63.5	44.4	31
CC(=O)N[C@@H](Cc1ccc(OP(=O)(O)O)cc1)C(=O)N[C@H]1CCC(=O)N2CCC[C@@H](C(=O)NCc3ccccc3)N2C1=O	> 25	> 25	> 25	> 25	> 25	> 25	> 25	> 25	> 25	> 25	> 25	> 25	> 25	> 25	> 25	> 25	> 25	> 25	> 25	> 25
